Source: ChEMBL document CHEMBL1128864, “Antitumor activities of -, -monogalactosylceramides and four diastereomers of an -galactosylceramide” (1995)

Key:
Format in all cases: functional
Mus musculus [1] = assay: Percent of tumor growth inhibition ratio (TGIR)of the compound administered intravenously at dose 100 ug/kg(on day 7, 11,15) in subcutaneously infected BDF1 mice on day 22
Mus musculus [2] = assay: Percent of tumor growth inhibition ratio (TGIR)of the compound administered intravenously at dose 100 ug/kg(on day 7, 11,15) in subcutaneously infected BDF1 mice on day 11
Mus musculus [3] = assay: Percent of tumor growth inhibition ratio (TGIR)of the compound administered intravenously at dose 100 ug/kg(on day 7, 11,15) in subcutaneously infected BDF1 mice on day 14
Mus musculus [4] = assay: Percent of tumor growth inhibition ratio (TGIR)of the compound administered intravenously at dose 100 ug/kg(on day 7, 11,15) in subcutaneously infected BDF1 mice on day 18
Mus musculus [5] = assay: Percent of tumor growth inhibition ratio (TGIR)of the compound administered intravenously at dose 100 ug/kg(on day 1, 5, 9) in subcutaneously infected BDF1 mice on day 16
Mus musculus [6] = assay: Percent of tumor growth inhibition ratio (TGIR)of the compound administered intravenously at dose 100 ug/kg(on day 1, 5, 9) in subcutaneously infected BDF1 mice on day 20
Mus musculus [7] = assay: Percent of tumor growth inhibition ratio (TGIR)of the compound administered intravenously at dose 100 ug/kg on day 1, 5, 9 in subcutaneously (murine fibrosarcoma Meth A cells) infected in BDF1 mice on day 10
Mus musculus [8] = assay: Percent of tumor growth inhibition ratio (TGIR)of the compound administered intravenously at dose 100 ug/kg on day 1, 5, 9 in subcutaneously (murine fibrosarcoma Meth A cells) infected in BDF1 mice on day 20
Mus musculus [9] = assay: Percent of tumor growth inhibition ratio (TGIR)of the compound administered intravenously at dose 100 ug/kg on day 1, 5, 9 in subcutaneously (murine fibrosarcoma Meth A cells) infected in BDF1 mice on day 16
Mus musculus [10] = assay: Percent of tumor growth inhibition ratio (TGIR)of the compound administered intravenously at dose 100 ug/kg on day 1, 5, 9 in subcutaneously (murine fibrosarcoma Meth A cells) infected in BDF1 mice on day 13
Mus musculus [11] = assay: Percent of tumor growth inhibition ratio (TGIR)of the compound administered intravenously at dose 100 ug/kg(on day 1, 5, 9) in subcutaneously infected BDF1 mice on day 12
Mus musculus [12] = assay: Percent of tumor growth inhibition ratio (TGIR)of the compound administered intravenously at dose 100 ug/kg(on day 1, 5, 9) in subcutaneously infected BDF1 mice on day 9
Mus musculus [13] = assay: Evaluated for life span prolonging effects against female BDF1 mice infected intraperitoneally 1x10E6 murine melanoma B16 cells on day 0 at dose of 1 mg/kg; conditions: route intraperitoneal
Mus musculus [14] = organism: Mus musculus; assay: Evaluated for lymphocyte proliferation stimulatory effect in BALB/c mice and percent control of [3H]-TdR incorporation using allogenic mixed lymphocyte reaction (MLR) at a dose 10 ng/ml
Mus musculus [15] = organism: Mus musculus; assay: Evaluated for lymphocyte proliferation stimulatory effect in BALB/c mice and percent control of [3H]TdR incorporation using allogenic mixed lymphocyte reaction (MLR) at a dose 1 ng/ml
Mus musculus [16] = assay: Evaluated for life span prolonging effects against female BDF1 mice infected intraperitoneally 1x10E6 P388 cells on day 0 at intravenous dose 0.1 mg/kg on day 1,5,9
Mus musculus [17] = organism: Mus musculus; assay: Evaluated for lymphocyte proliferation stimulatory effect in BALB/c mice and percent control of [3H]TdR incorporation at dose 100 ng/ml using allogenic mixed lymphocyte reaction (MLR)
Mus musculus [18] = assay: Evaluated for life span prolonging effects against female BDF1 mice infected intraperitoneally 1x10E6 murine melanoma B16 cells on day 0 at dose of 0.1 mg/kg; conditions: route intraperitoneal

SMILES	TGIR (Mus musculus [1])	TGIR (Mus musculus [3])	TGIR (Mus musculus [4])	Survival (Mus musculus [13])	T/C (Mus musculus [13])	Control (Mus musculus [14])	Control (Mus musculus [15])	Survival (Mus musculus [16])	T/C (Mus musculus [16])	Control (Mus musculus [17])	Survival (Mus musculus [18])	T/C (Mus musculus [18])	also measured
CCCCCCCCCCCCCCCCCCCCCCCCCC(=O)N[C@@H](CO[C@H]1O[C@H](CO)[C@H](O)[C@H](O)[C@H]1O)[C@H](O)[C@H](O)CCCCCCCCCCCCCC [RGI-7000]	40.2%	50.9%	51.1%	–	–	–	–	–	–	–	–	–	TGIR (Mus musculus [2]): 41.1%
CCCCCCCCCCCCCCC[C@@H](O)[C@H](CO[C@H]1O[C@@H](CO)[C@H](O)[C@H](O)[C@@H]1O)NC(=O)CCCCCCCCCCCCC (stereo in doubt; form 3)	–	–	–	–	–	–	–	–	–	–	–	–	TGIR (Mus musculus [5]): 26.8%; TGIR (Mus musculus [6]): 4.2%; TGIR (Mus musculus [7]): 45.6%; TGIR (Mus musculus [8]): 21.3%; TGIR (Mus musculus [9]): 28.9%; TGIR (Mus musculus [10]): 41.5%; TGIR (Mus musculus [11]): 45.2%; TGIR (Mus musculus [12]): 35.3%
CCCCCCCCCCCCCC(=O)N[C@@H](CO[C@H]1O[C@@H](CO)[C@H](O)[C@H](O)[C@@H]1O)[C@H](O)CCCCCCCCCCCCC	67.9%	66.6%	66.4%	–	–	–	–	–	–	–	–	–	TGIR (Mus musculus [2]): 76.5%
CCCCCCCCCCCCCCC[C@@H](O)[C@H](CO[C@H]1O[C@@H](CO)[C@H](O)[C@H](O)[C@@H]1O)NC(=O)CCCCCCCCCCCCC (stereo in doubt; form 2)	–	–	–	–	–	–	–	–	–	–	–	–	TGIR (Mus musculus [5]): 1.4%; TGIR (Mus musculus [6]): -7.6%; TGIR (Mus musculus [7]): 45.2%; TGIR (Mus musculus [8]): 7%; TGIR (Mus musculus [9]): 29.2%; TGIR (Mus musculus [10]): 45%; TGIR (Mus musculus [11]): 2.7%; TGIR (Mus musculus [12]): -28%
CCCCCCCCCCCCCCC[C@@H](O)[C@H](CO[C@H]1O[C@@H](CO)[C@H](O)[C@H](O)[C@@H]1O)NC(=O)CCCCCCCCCCCCC (stereo in doubt; form 1)	–	–	–	–	–	–	–	–	–	–	–	–	TGIR (Mus musculus [5]): 35%; TGIR (Mus musculus [6]): 28.3%; TGIR (Mus musculus [7]): 26.9%; TGIR (Mus musculus [8]): 3.9%; TGIR (Mus musculus [9]): 22.1%; TGIR (Mus musculus [10]): 33.1%; TGIR (Mus musculus [11]): 38%; TGIR (Mus musculus [12]): 29%
CCCCCCCCCCCCCCCCCCCCCC[C@@H](O)C(=O)N[C@@H](CO[C@H]1O[C@@H](CO)[C@H](O)[C@H](O)[C@@H]1O)[C@H](O)[C@H](O)CCCCCCCCCCCC	–	–	–	31.5 days	170%	258%	253%	11 days	106%	350%	26.8 days	145%	–
CCCCCCCCCCCCCCCCCCCCCC[C@@H](O)C(=O)N[C@@H](CO[C@H]1O[C@@H](CO)[C@H](O)[C@H](O)[C@@H]1O)[C@H](O)[C@H](O)CCCCCCCCCCCC(C)CC (some centres undefined)	–	–	–	34.5 days	187%	209%	179%	11.2 days	108%	255%	28.2 days	152%	–
CCCCCCCCCCCCCCC[C@@H](O)[C@H](CO[C@H]1O[C@@H](CO)[C@H](O)[C@H](O)[C@@H]1O)NC(=O)CCCCCCCCCCCCC (stereo in doubt; form 4)	–	–	–	–	–	–	–	–	–	–	–	–	TGIR (Mus musculus [5]): 64.8%; TGIR (Mus musculus [6]): 54%; TGIR (Mus musculus [7]): 69%; TGIR (Mus musculus [8]): 36.7%; TGIR (Mus musculus [9]): 58.1%; TGIR (Mus musculus [10]): 68.1%; TGIR (Mus musculus [11]): 62%; TGIR (Mus musculus [12]): 59.5%
CCCCCCCCCCCCCC(=O)N[C@@H](CO[C@H]1O[C@@H](CO)[C@H](O)[C@H](O)[C@@H]1O)[C@@H](O)CCCCCCCCCCCCC	13.1%	4.9%	8.5%	–	–	–	–	–	–	–	–	–	–
CCCCCCCCCCCCCC(=O)N[C@H](CO[C@H]1O[C@@H](CO)[C@H](O)[C@H](O)[C@@H]1O)[C@@H](O)CCCCCCCCCCCCC	40.1%	52.6%	42.2%	–	–	–	–	–	–	–	–	–	TGIR (Mus musculus [2]): 55.9%
CCCCCCC/C=C/C(C)=C/CC/C=C/[C@@H](O)[C@H](CO[C@H]1O[C@@H](CO)[C@H](O)[C@H](O)[C@@H]1O)NC(=O)[C@H](O)CCCCCCCCCCCCCCCCCCCCCC	–	–	–	23.7 days	127%	134%	142%	11.3 days	109%	169%	21.3 days	115%	–
CCCCCCCCCCCCCCCCCCCCCCCCCC(=O)N[C@@H](CO[C@H]1O[C@@H](CO)[C@H](O)[C@H](O)[C@@H]1O)[C@H](O)[C@H](O)CCCCCCCCCCCCCC	-3.8%	17.2%	20.3%	–	–	–	–	–	–	–	–	–	TGIR (Mus musculus [2]): 16.1%
CCCCCCCCCCCCCC(=O)N[C@H](CO[C@H]1O[C@@H](CO)[C@H](O)[C@H](O)[C@@H]1O)[C@H](O)CCCCCCCCCCCCC	5.1%	13%	11%	–	–	–	–	–	–	–	–	–	–
CCCCCCCCCCCCCCCCCCCCCCC[C@@H](O)C(=O)N[C@@H](CO[C@H]1O[C@@H](CO)[C@H](O)[C@H](O)[C@@H]1O)[C@H](O)[C@H](O)CCCCCCCCCCCC(C)CC (some centres undefined)	–	–	–	32 days	173%	281%	233%	11.2 days	108%	319%	28 days	151%	–
CCCCCCCCCCCCCCCCCCCCCC[C@@H](O)C(=O)N[C@@H](CO[C@H]1O[C@@H](CO)[C@H](O)[C@H](O)[C@@H]1O)[C@H](O)[C@H](O)CCCCCCCCCCCC(C)C	–	–	–	27 days	146%	220%	184%	11.3 days	109%	236%	27.6 days	149%	–
